Results as given in patent publication US9139609B2, “C-4″ position substituted macrolide derivative” (priority 2011, dated 2015).
Converted amounts (≈) assume the structure as drawn.

Assays:
Assay type in all cases: cell-based
[1] = system: Haemophilus infuenzae ATCC43095; assay: In vitro antibacterial activity, microbroth dilution method (CLSI method), test bacterium A; settings: read-out: MIC (minimum inhibitory concentration), test bacterium A
Protocol: (§1) In vitro antibacterial activities of the compounds of the present invention against various test bacteria were measured according to the microbroth dilution method (CLSI method). Among them, the bacteria C, D and E are erythromycin resistant bacteria. The MIC values (minimum inhibitory concentration, μg/ml) for the test bacteria A and B are exemplified in Table 22.

[2] = system: Streptococcus pneumoniae ATCC49619; assay: In vitro antibacterial activity, microbroth dilution method (CLSI method), test bacterium B; settings: read-out: MIC (minimum inhibitory concentration), test bacterium B
Protocol: as §1

[3] = system: Streptococcus pyogenes M808; assay: In vitro antibacterial activity, microbroth dilution method (CLSI method), test bacterium D (erythromycin resistant); settings: read-out: MIC (minimum inhibitory concentration), test bacterium D
Protocol: as §1

[4] = system: Streptococcus pneumoniae ATCC700904; assay: In vitro antibacterial activity, microbroth dilution method (CLSI method), test bacterium C (erythromycin resistant); settings: read-out: MIC (minimum inhibitory concentration), test bacterium C
Protocol: as §1

| Structure (SMILES) | MIC [1] [µg/mL] | MIC [2] [µg/mL] | MIC [3] [µg/mL] | MIC [4] [µg/mL] |
| --- | --- | --- | --- | --- |
| CC[C@H]1OC(=O)[C@H](C)[C@@H](O[C@H]2C[C@@](C)(OC)[C@@](O)(CN(C)CCN(CC)CC)[C@H](C)O2)[C@H](C)[C@@H](O[C@@H]2O[C@H](C)C[C@H](N(C)C)[C@H]2O)[C@@](C)(OC)C[C@@H](C)C(=O)[C@H](C)[C@H]2N(CC3CCS(=O)(=O)C3)C(=O)O[C@]12C (some centres unmarked) [Example154] | 4 (≈ 3.82 µM) | 0.06 (≈ 0.0573 µM) | – | – |
| CC[C@H]1OC(=O)[C@H](C)[C@@H](O[C@H]2C[C@@](C)(OC)[C@@](O)(CN(C)CCN(CC)CC)[C@H](C)O2)[C@H](C)[C@@H](O[C@@H]2O[C@H](C)C[C@H](N(C)C)[C@H]2O)[C@@](C)(OC)C[C@@H](C)C(=O)[C@H](C)[C@H]2N(O)C(=O)O[C@]12C [Example170] | 4 (≈ 4.3 µM) | 0.03 (≈ 0.0322 µM) | – | – |
| CC[C@H]1OC(=O)[C@H](C)[C@@H](O[C@H]2C[C@@](C)(OC)[C@@](O)(CN(C)CCN(C)C)[C@H](C)O2)[C@H](C)[C@@H](O[C@@H]2O[C@H](C)C[C@H](N(C)C)[C@H]2O)[C@@](C)(OC)C[C@@H](C)C(=O)[C@H](C)[C@H]2N(C)C(=O)O[C@]12C [Example183] | 8 (≈ 8.88 µM) | 0.016 (≈ 0.0178 µM) | – | – |
| CC[C@H]1OC(=O)[C@H](C)[C@@H](O[C@H]2C[C@@](C)(OC)[C@@](O)(CN(C)CCN(CC)C(C)=O)[C@H](C)O2)[C@H](C)[C@@H](O[C@@H]2O[C@H](C)C[C@H](N(C)C)[C@H]2O)[C@@](C)(OC)C[C@@H](C)C(=O)[C@H](C)[C@H]2NC(=O)O[C@@]21C [Example263] | 8 (≈ 8.61 µM) | 0.06 (≈ 0.0646 µM) | – | – |
| CC[C@H]1OC(=O)[C@H](C)[C@@H](O[C@H]2C[C@@](C)(OC)[C@@](O)(CN(C)CCN(CC)CC)[C@H](C)O2)[C@H](C)[C@@H](O[C@@H]2O[C@H](C)C[C@H](N(C)C)[C@H]2O)[C@@](C)(OC)C[C@@H](C)C(=O)[C@H](C)[C@H]2N(CC3CCS(=O)(=O)C3)C(=O)O[C@]12C (some centres unmarked) [Example 154] | – | – | 4 to 8 (≈ 3.82 to 7.64 µM) | 0.12 to 0.25 (≈ 0.115 to 0.239 µM) |
| CC[C@H]1OC(=O)[C@H](C)[C@@H](O[C@H]2C[C@@](C)(OC)[C@@](O)(CN(C)CCN(CC)CC)[C@H](C)O2)[C@H](C)[C@@H](O[C@@H]2O[C@H](C)C[C@H](N(C)C)[C@H]2O)[C@@](C)(OC)C[C@@H](C)C(=O)[C@H](C)[C@H]2N(O)C(=O)O[C@]12C [Example 170] | – | – | 4 to 8 (≈ 4.3 to 8.59 µM) | 0.12 to 0.25 (≈ 0.129 to 0.268 µM) |
| CC[C@H]1OC(=O)[C@H](C)[C@@H](O[C@H]2C[C@@](C)(OC)[C@@](O)(CN(C)CCN(C)C)[C@H](C)O2)[C@H](C)[C@@H](O[C@@H]2O[C@H](C)C[C@H](N(C)C)[C@H]2O)[C@@](C)(OC)C[C@@H](C)C(=O)[C@H](C)[C@H]2N(C)C(=O)O[C@]12C [Example 183] | – | – | ≥ 16 | 0.5 to 2 (≈ 0.555 to 2.22 µM) |
| CC[C@H]1OC(=O)[C@H](C)[C@@H](O[C@H]2C[C@@](C)(OC)[C@@](O)(CN(C)CCN(CC)C(C)=O)[C@H](C)O2)[C@H](C)[C@@H](O[C@@H]2O[C@H](C)C[C@H](N(C)C)[C@H]2O)[C@@](C)(OC)C[C@@H](C)C(=O)[C@H](C)[C@H]2NC(=O)O[C@@]21C [Example 263] | – | – | ≥ 16 | 0.5 to 2 (≈ 0.538 to 2.15 µM) |
| CC[C@H]1OC(=O)[C@H](C)[C@@H](O[C@H]2C[C@@](C)(OC)[C@@](O)(CN(C)CCN(CC)C(=O)OC)[C@H](C)O2)[C@H](C)[C@@H](O[C@@H]2O[C@H](C)C[C@H](N(C)C)[C@H]2O)[C@@](C)(OC)C[C@@H](C)C(=O)[C@H](C)[C@H]2NC(=O)O[C@@]21C [Example 264] | – | – | ≥ 16 | 0.12 to 0.25 (≈ 0.127 to 0.264 µM) |
| CC[C@H]1OC(=O)[C@H](C)[C@@H](O[C@H]2C[C@@](C)(OC)[C@@](O)(CN(C)C(=O)CN(CC)CC)[C@H](C)O2)[C@H](C)[C@@H](O[C@@H]2O[C@H](C)C[C@H](N(C)C)[C@H]2O)[C@@](C)(OC)C[C@@H](C)C(=O)[C@H](C)[C@H]2NC(=O)O[C@@]21C [Example 329] | – | – | ≥ 16 | 0.5 to 2 (≈ 0.538 to 2.15 µM) |
| CC[C@H]1OC(=O)[C@H](C)[C@@H](O[C@H]2C[C@@](C)(OC)[C@@](O)(CN(C)CCN(C)C(C)(C)c3ccccc3OC)[C@H](C)O2)[C@H](C)[C@@H](O[C@@H]2O[C@H](C)C[C@H](N(C)C)[C@H]2O)[C@]2(C)C[C@@H](C)C(O2)[C@H](C)[C@H]2NC(=O)O[C@@]21C [Example 332] | – | – | ≥ 16 | 0.5 to 2 (≈ 0.504 to 2.02 µM) |
| CC[C@H]1OC(=O)[C@H](C)[C@@H](O[C@H]2C[C@@](C)(OC)[C@@](O)(CN(C)CCN(C)C)[C@H](C)O2)[C@H](C)[C@@H](O[C@@H]2O[C@H](C)C[C@H](N(C)C)[C@H]2O)[C@@](C)(OC(=O)NC/C=C/c2ccc3ncccc3c2)C[C@@H](C)C(=O)[C@H](C)[C@H]2NC(=O)O[C@@]21C [Example 348] | – | – | 4 to 8 (≈ 3.69 to 7.38 µM) | 0.12 to 0.25 (≈ 0.111 to 0.231 µM) |
| CC[C@H]1OC(=O)[C@H](C)[C@@H](O[C@H]2C[C@@](C)(OC)[C@@](O)(CN(CC)CCN(CC)CC)[C@H](C)O2)[C@H](C)[C@@H](O[C@@H]2O[C@H](C)C[C@H](N(C)C)[C@H]2O)[C@@](C)(OC)C[C@@H](C)C(=O)[C@H](C)[C@H]2N(CCNS(C)(=O)=O)C(=O)O[C@]12C [Example 413] | – | – | 4 to 8 (≈ 3.81 to 7.62 µM) | 0.12 to 0.25 (≈ 0.114 to 0.238 µM) |
| CC[C@H]1OC(=O)[C@H](C)[C@@H](O[C@H]2C[C@@](C)(OC)[C@@](O)(CN(C)CCN(CC)C3CCC3)[C@H](C)O2)[C@H](C)[C@@H](O[C@@H]2O[C@H](C)C[C@H](N(C)C)[C@H]2O)[C@@](C)(OC)C[C@@H](C)C(=O)[C@H](C)[C@H]2N(CCCS(C)(=O)=O)C(=O)O[C@]12C [Example 418] | – | – | ≤ 2 | 0.12 to 0.25 (≈ 0.113 to 0.236 µM) |
| CC[C@H]1OC(=O)[C@H](C)[C@@H](O[C@H]2C[C@@](C)(OC)[C@@](O)(CN(C)CCN(CC)CC)[C@H](C)O2)[C@H](C)[C@@H](O[C@@H]2O[C@H](C)C[C@H](N(C)C)[C@H]2O)[C@@](C)(OC)C[C@@H](C)C(=O)[C@H](C)[C@H]2N(CCN3CCNS3(=O)=O)C(=O)O[C@]12C [Example 440] | – | – | 4 to 8 (≈ 3.76 to 7.52 µM) | 0.12 to 0.25 (≈ 0.113 to 0.235 µM) |
| CC[C@H]1OC(=O)[C@H](C)[C@@H](O[C@H]2C[C@@](C)(OC)[C@@](O)(CN(CCOC)CCN(CC)CC)[C@H](C)O2)[C@H](C)[C@@H](O[C@@H]2O[C@H](C)C[C@H](N(C)C)[C@H]2O)[C@@](C)(OC)C[C@@H](C)C(=O)[C@H](C)[C@H]2N(CCNS(C)(=O)=O)C(=O)O[C@]12C [Example 443] | – | – | 4 to 8 (≈ 3.7 to 7.4 µM) | 0.12 to 0.25 (≈ 0.111 to 0.231 µM) |
| CC[C@H]1OC(=O)[C@H](C)[C@@H](O[C@H]2C[C@@](C)(OC)[C@@](O)(CN(C)CCN3C4CCC3CC4)[C@H](C)O2)[C@H](C)[C@@H](O[C@@H]2O[C@H](C)C[C@H](N(C)C)[C@H]2O)[C@@](C)(OC)C[C@@H](C)C(=O)[C@H](C)[C@H]2N(CCNS(C)(=O)=O)C(=O)O[C@]12C [Example 446] | – | – | 4 to 8 (≈ 3.77 to 7.54 µM) | 0.12 to 0.25 (≈ 0.113 to 0.236 µM) |
| CC[C@H]1OC(=O)[C@H](C)[C@@H](O[C@H]2C[C@@](C)(OC)[C@@](O)(CN(C)CCN(C(C)C)C(C)C)[C@H](C)O2)[C@H](C)[C@@H](O[C@@H]2O[C@H](C)C[C@H](N(C)C)[C@H]2O)[C@@](C)(OC)C[C@@H](C)C(=O)[C@H](C)[C@H]2N(CCS(=O)(=O)NC)C(=O)O[C@]12C [Example 451] | – | – | 4 to 8 (≈ 3.76 to 7.52 µM) | 0.12 to 0.25 (≈ 0.113 to 0.235 µM) |
| CC[C@H]1OC(=O)[C@H](C)[C@@H](O[C@H]2C[C@@](C)(OC)[C@@](O)(CN(C)CCN(C(C)C)C(C)C)[C@H](C)O2)[C@H](C)[C@@H](O[C@@H]2O[C@H](C)C[C@H](N(C)C)[C@H]2O)[C@@](C)(OC)C[C@@H](C)C(=O)[C@H](C)[C@H]2N(CCOS(N)(=O)=O)C(=O)O[C@]12C [Example 456] | – | – | ≤ 2 | 0.12 to 0.25 (≈ 0.113 to 0.234 µM) |
